According to patent US8877748B2, “Heterocyclic fused anthraquinone derivatives, manufacturing method and pharmaceutical composition using thereof” (National Defense Medical Center, priority 2012, dated 2014):

Experiments:
Assay type in all cases: cell-based, human
MOLT-4 = assay: NCI one-dose screening, leukemia MOLT-4; settings: 10 μM
A549/ATCC = assay: NCI one-dose screening, non-small cell lung cancer A549/ATCC; settings: 10 μM
HOP-62 = assay: NCI one-dose screening, non-small cell lung cancer HOP-62; settings: 10 μM
NCI-H226 = assay: NCI one-dose screening, non-small cell lung cancer NCI-H226; settings: 10 μM
K562cell line = assay: NCI one-dose screening, leukemia K562; settings: 10 μM
SNB-75 = assay: NCI one-dose screening, CNS cancer SNB-75; settings: 10 μM
OVCAR-8 = assay: NCI one-dose screening, ovarian cancer OVCAR-8; settings: 10 μM
SK-MEL-28 = assay: NCI one-dose screening, melanoma SK-MEL-28; settings: 10 μM
NCl/ADR-RES = assay: NCI one-dose screening, breast cancer NCl/ADR-RES; settings: 10 μM; listed under Ovarian cancer
OVCAR-5 = assay: NCI one-dose screening, ovarian cancer OVCAR-5; settings: 10 μM
RXF, 393 = assay: NCI one-dose screening, renal cancer RXF, 393; settings: 10 μM
SF-295 = assay: NCI one-dose screening, CNS cancer SF-295; settings: 10 μM
M14 = assay: NCI one-dose screening, melanoma M14; settings: 10 μM
CCRF-CEM = assay: NCI screening platform one-dose single concentration screening, leukemia CCRF-CEM; settings: 10 μM
U251 = assay: NCI one-dose screening, CNS cancer U251; settings: 10 μM
KM12 = assay: NCI one-dose screening, colon cancer KM12; settings: 10 μM
HCT-116 = assay: NCI one-dose screening, colon cancer HCT-116; settings: 10 μM
NCI-H460 = assay: NCI one-dose screening, non-small cell lung cancer NCI-H460; settings: 10 μM
ACHN = assay: NCI one-dose screening, renal cancer ACHN; settings: 10 μM
TK-10 = assay: NCI one-dose screening, renal cancer TK-10; settings: 10 μM
MALME-3M = assay: NCI one-dose screening, melanoma MALME-3M; settings: 10 μM
OVCAR-4 = assay: NCI one-dose screening, ovarian cancer OVCAR-4; settings: 10 μM
SF-539 = assay: NCI one-dose screening, CNS cancer SF-539; settings: 10 μM
SNB-19 = assay: NCI one-dose screening, CNS cancer SNB-19; settings: 10 μM
HCC-2998 = assay: NCI one-dose screening, colon cancer HCC-2998; settings: 10 μM
OVCAR-3 = assay: NCI one-dose screening, ovarian cancer OVCAR-3; settings: 10 μM
[1] = system: PC-3 prostate cancer cell line; assay: SRB assay cell viability, PC-3 prostate cancer cell line; settings: Homo sapiens, PC-3 prostate cancer cell line, Table II prints no unit, μM printed, read-out: SRB assay: 50% inhibition of cancer cell proliferation of sample concentration (IC50) of PC-3 prostate cancer cell line
SN12C = assay: NCI one-dose screening, renal cancer SN12C; settings: 10 μM
CAKI-1 = assay: NCI one-dose screening, renal cancer CAKI-1; settings: 10 μM
786-O = assay: NCI one-dose screening, renal cancer 786-O; settings: 10 μM
EKVX = assay: NCI one-dose screening, non-small cell lung cancer EKVX; settings: 10 μM
HCT-15 = assay: NCI one-dose screening, colon cancer HCT-15; settings: 10 μM
PRMI-8226 cell line = assay: NCI one-dose screening, leukemia PRMI-8226; settings: 10 μM
NCI-H23 = assay: NCI one-dose screening, non-small cell lung cancer NCI-H23; settings: 10 μM
HT29 = assay: NCI one-dose screening, colon cancer HT29; settings: 10 μM
SF-268 = assay: NCI one-dose screening, CNS cancer SF-268; settings: 10 μM
NCI-H322M = assay: NCI one-dose screening, non-small cell lung cancer NCI-H322M; settings: 10 μM; Non-small cell lung cancer
COLO 205 = assay: NCI one-dose screening, colon cancer COLO 205; settings: 10 μM
SK-MEL-5 = assay: NCI one-dose screening, melanoma SK-MEL-5; settings: 10 μM
SK-MEL-2 = assay: NCI one-dose screening, melanoma SK-MEL-2; settings: 10 μM
HL-60, TB = assay: NCI one-dose screening, leukemia HL-60, TB; settings: 10 μM
UACC-62 = assay: NCI one-dose screening, melanoma UACC-62; settings: 10 μM
UACC-257 = assay: NCI one-dose screening, melanoma UACC-257; settings: 10 μM
LOX IMVI = assay: NCI one-dose screening, melanoma LOX IMVI; settings: 10 μM
NCI-H522 = assay: NCI one-dose screening, non-small cell lung cancer NCI-H522; settings: 10 μM
IGROV1 = assay: NCI one-dose screening, ovarian cancer IGROV1; settings: 10 μM
MDA, -MB-435 = assay: NCI one-dose screening, breast cancer MDA, -MB-435; settings: 10 μM; listed under Melanoma
SR = assay: NCI one-dose screening, leukemia SR; settings: 10 μM

With `Cc1cccc(C)c1Sc1cc2c(c3nsnc13)C(=O)c1ccccc1C2=O` [C55, 4-(2,6-dimethylphenylthio)anthra[2,1-c] [1,2,5]thiadiazol-6,11-dione] the “Growth Percent MOLT-4” value (MOLT-4) was 32.64%, the “Growth Percent A549/ATCC” value (A549/ATCC) was 90.16% and the “Growth Percent HOP-62” value (HOP-62) was 90.01%. The “Growth Percent NCI-H226” value (NCI-H226) was 78.31%, the “Growth Percent K562” value (K562cell line) was 43.14% and the “Growth Percent SNB-75” value (SNB-75) was 69.38%. For the same compound, the “Growth Percent OVCAR-8” value (OVCAR-8) was 58.98%, the “Growth Percent SK-MEL-28” value (SK-MEL-28) was 89.33% and the “Growth Percent NCI/ADR-RES” value (NCl/ADR-RES) was 59.68%. For the same compound, the “Growth Percent OVCAR-5” value (OVCAR-5) was 113.96%, the “Growth Percent RXF 393” value (RXF, 393) was 76.16% and the “Growth Percent SF-295” value (SF-295) was 91.11%. For the same compound, the “Growth Percent M14” value (M14) was 121.55%, the “Growth Percent CCRF-CEM” value (CCRF-CEM) was 34.84% and the “Growth Percent U251” value (U251) was 53.94%. For the same compound, the “Growth Percent KM12” value (KM12) was 95.96%, the “Growth Percent HCT-116” value (HCT-116) was 64.99% and the “Growth Percent NCI-H460” value (NCI-H460) was 87.37%. For the same compound, the “Growth Percent ACHN” value (ACHN) was 83.18%, the “Growth Percent TK-10” value (TK-10) was 119.41% and the “Growth Percent MALME-3M” value (MALME-3M) was 73.72%. For the same compound, the “Growth Percent OVCAR-4” value (OVCAR-4) was 4.00%, the “Growth Percent SF-539” value (SF-539) was 84.51% and the “Growth Percent SNB-19” value (SNB-19) was 94.75%. The “Growth Percent HCC-2998” value (HCC-2998) was 100.96%, the “Growth Percent OVCAR-3” value (OVCAR-3) was 1.00% and the IC50 [1] was 6.74 µM. The “Growth Percent SN12C” value (SN12C) was 67.67%, the “Growth Percent CAKI-1” value (CAKI-1) was 61.03% and the “Growth Percent 786-0” value (786-O) was 115.19%. For the same compound, the “Growth Percent EKVX” value (EKVX) was 82.44%, the “Growth Percent HCT-15” value (HCT-15) was 47.54% and the “Growth Percent RPMI-8226” value (PRMI-8226 cell line) was 55.63%. The “Growth Percent NCI-H23” value (NCI-H23) was 67.37%, the “Growth Percent HT29” value (HT29) was 97.73% and the “Growth Percent SF-268” value (SF-268) was 79.48%. For the same compound, the “Growth Percent NCI-H322M” value (NCI-H322M) was 83.83%, the “Growth Percent COLO 205” value (COLO 205) was 98.76% and the “Growth Percent SK-MEL-5” value (SK-MEL-5) was 70.23%. The “Growth Percent SK-MEL-2” value (SK-MEL-2) was 67.54%, the “Growth Percent HL-60(TB)” value (HL-60, TB) was 47.83% and the “Growth Percent UACC-62” value (UACC-62) was 91.72%. The “Growth Percent UACC-257” value (UACC-257) was 86.57%, the “Growth Percent LOX IMVI” value (LOX IMVI) was 44.61% and the “Growth Percent NCI-H522” value (NCI-H522) was 61.39%. For the same compound, the “Growth Percent IGROV1” value (IGROV1) was 66.38%, the “Growth Percent MDA-MB-435” value (MDA, -MB-435) was 96.77% and the “Growth Percent SR” value (SR) was 35.52%.
With `O=C1c2ccccc2C(=O)c2c1cc(Nc1ccc(Cl)cc1F)c1nsnc21` [C65, 4-(4-chloro-2-fluoro-phenylamino)anthra [2,1-c][1,2,5]thiadiazol-6,11-dione] the “Growth Percent MOLT-4” value (MOLT-4) was 20.18%, the “Growth Percent A549/ATCC” value (A549/ATCC) was 69.22% and the “Growth Percent HOP-62” value (HOP-62) was 79.67%. For the same compound, the “Growth Percent NCI-H226” value (NCI-H226) was 74.35%, the “Growth Percent K562” value (K562cell line) was 35.29% and the “Growth Percent SNB-75” value (SNB-75) was 83.19%. For the same compound, the “Growth Percent OVCAR-8” value (OVCAR-8) was 36.77%, the “Growth Percent SK-MEL-28” value (SK-MEL-28) was 87.69% and the “Growth Percent NCI/ADR-RES” value (NCl/ADR-RES) was 48.31%. For the same compound, the “Growth Percent OVCAR-5” value (OVCAR-5) was 114.60%, the “Growth Percent RXF 393” value (RXF, 393) was 66.49% and the “Growth Percent SF-295” value (SF-295) was 86.04%. The “Growth Percent M14” value (M14) was 118.36%, the “Growth Percent CCRF-CEM” value (CCRF-CEM) was 29.84% and the “Growth Percent U251” value (U251) was 43.08%. For the same compound, the “Growth Percent KM12” value (KM12) was 83.42%, the “Growth Percent HCT-116” value (HCT-116) was 52.51% and the “Growth Percent NCI-H460” value (NCI-H460) was 81.55%. For the same compound, the “Growth Percent ACHN” value (ACHN) was 74.11%, the “Growth Percent TK-10” value (TK-10) was 110.93% and the “Growth Percent MALME-3M” value (MALME-3M) was 58.74%. For the same compound, the “Growth Percent OVCAR-4” value (OVCAR-4) was −4.36%, the “Growth Percent SF-539” value (SF-539) was 75.99% and the “Growth Percent SNB-19” value (SNB-19) was 94.57%. The “Growth Percent HCC-2998” value (HCC-2998) was 97.85%, the “Growth Percent OVCAR-3” value (OVCAR-3) was 10.25% and the IC50 [1] was over 15 µM. For the same compound, the “Growth Percent SN12C” value (SN12C) was 86.43%, the “Growth Percent CAKI-1” value (CAKI-1) was 72.65% and the “Growth Percent 786-0” value (786-O) was 114.97%. The “Growth Percent EKVX” value (EKVX) was 80.90%, the “Growth Percent HCT-15” value (HCT-15) was 45.61% and the “Growth Percent RPMI-8226” value (PRMI-8226 cell line) was 40.73%. The “Growth Percent NCI-H23” value (NCI-H23) was 53.59%, the “Growth Percent HT29” value (HT29) was 98.33% and the “Growth Percent SF-268” value (SF-268) was 69.25%. For the same compound, the “Growth Percent NCI-H322M” value (NCI-H322M) was 91.66%, the “Growth Percent COLO 205” value (COLO 205) was 90.97% and the “Growth Percent SK-MEL-5” value (SK-MEL-5) was 49.49%. The “Growth Percent SK-MEL-2” value (SK-MEL-2) was 72.52%, the “Growth Percent HL-60(TB)” value (HL-60, TB) was 8.17% and the “Growth Percent UACC-62” value (UACC-62) was 85.80%. For the same compound, the “Growth Percent UACC-257” value (UACC-257) was 50.45%, the “Growth Percent LOX IMVI” value (LOX IMVI) was 29.97% and the “Growth Percent NCI-H522” value (NCI-H522) was 47.67%. For the same compound, the “Growth Percent IGROV1” value (IGROV1) was 69.50%, the “Growth Percent MDA-MB-435” value (MDA, -MB-435) was 27.37% and the “Growth Percent SR” value (SR) was 23.58%.
